# From patent US11026984B2, “Use of isothiocyanate derivatives as modulators of peripheral and neuropathic pain” (Indena S.P.A., priority 2015, dated 2021)
# System: oxaliplatin induced hyperalgesia in the mouse
# Test: Cold plate test, oxaliplatin induced hyperalgesia in mice
# Assay type: in vivo
# Conditions: for Licking latency, 15 min after treatment / Licking latency, 30 min after treatment / Licking latency, 45 min after treatment / Licking latency, 60 min after treatment: day 14, oxaliplatin-treated mice; for Licking latency, Pre-test (48 hrs after last oxaliplatin adm.): baseline before treatment, oxaliplatin 2.4 mg/kg i.p., mean of 10 mice
# Procedure: The acute oral effect of Moringa oleifera L. seeds extract and purified GMG and GMG-ITC on oxaliplatin induced hyperalgesia in mice (Cold plate test) were evaluated.
# The method utilized is a modification of that described by Cavalletti et al. (Cavalletti G. et al., Eur. J. Cancer 37(18), 2457, 2001). Oxaliplatin (2.4 mg/kg) was dissolved in 5% glucose solution and administered i.p. for 5 consecutive days every week for 14 days. On day 14, the test products were suspended in 1% CMC and administered orally. Pregabalin was used, in the same experimental conditions, as a reference active compound at the dose of 15 mg/kg s.c. dissolved in saline.
# Pain-related behavior (i.e. lifting and licking of the hind paw) were observed and the time (seconds) of the first sign was recorded.
# [1] = group later given 10 mg kg^-1 orally
Structure (SMILES),"Licking latency, 15 min after treatment (10 mg kg^-1 oral, acute)","Licking latency, 30 min after treatment (10 mg kg^-1 oral, acute)","Licking latency, 45 min after treatment (10 mg kg^-1 oral, acute)","Licking latency, 60 min after treatment (10 mg kg^-1 oral, acute) [s]","Licking latency, Pre-test (48 hrs after last oxaliplatin adm.) [1] [s]","Licking latency, 15 min after treatment (15 mg kg^-1 s.c.)","Licking latency, 30 min after treatment (15 mg kg^-1 s.c.)","Licking latency, 45 min after treatment (15 mg kg^-1 s.c.)","Licking latency, 60 min after treatment (15 mg kg^-1 s.c.) [s]","Licking latency, Pre-test (48 hrs after last oxaliplatin adm.) (group later given 15 mg kg^-1 s.c.) [s]"
"C[C@@H]1O[C@@H](Oc2ccc(C/C(=N/OS(=O)(=O)O)S[C@@H]3O[C@H](CO)[C@@H](O)[C@H](O)[C@H]3O)cc2)[C@H](O)[C@H](O)[C@H]1O [GMG, 4-(α-L-rhamnosyloxy)-benzyl glucosinolate]",21.1 ± 1.9^^ s,16.2 ± 0.7^ s,15.1 ± 1.3^ s,13.5 ± 2.3,10.3 ± 0.5,,,,,
"C[C@@H]1O[C@@H](Oc2ccc(CN=C=S)cc2)[C@H](O)[C@H](O)[C@H]1O [GMG-ITC, 4-(α-L-rhamnosyloxy)-benzyl isothiocyanate]",20.9 ± 1.8^^ s,16.0 ± 0.6^ s,15.0 ± 1.2^ s,13.3 ± 2.1,10.2 ± 0.4,,,,,
"CC(C)C[C@H](CN)CC(=O)O [pregabalin, reference compound]",,,,,,19.9 ± 1.9^ s,16.1 ± 0.6^ s,14.9 ± 1.3^ s,13.1 ± 2.0,11.0 ± 0.7
